Patent US7964531B2, “3-phenoxy-4-pyridazinol derivatives and herbicidal composition containing the same” (Mitsui Chemicals Agro, Inc., priority 2001, dated 2011)

Experiments:
Assay type in all cases: in vivo
Cyperus esculentus L. [1] = test: Test Example 5: herbicidal effects, upland (soil treatment); details: after 21 days
Experimental: (§1) Upland soil was filled in 150 cm^2 pot, and seeds of barnyardgrass, Cyperus esculentus L., velvetleaf, black nightshade, tall morningglory and corn were sowed, and grown in a greenhouse. At the next day of seeding, a predetermined chemical dosage of the wettable powder prepared in accordance with Preparation example 5 was diluted with water and applied to soil surface. After 21 days from the treatment, herbicidal effects and crop injury against corn were judged according to the following judgment standard, and the results were shown in Tables 6 to 8.
(§2) Judgment Standard • 0: Growth inhibition rate; 0 to 9% • 1: Growth inhibition rate; 10 to 19% • 2: Growth inhibition rate; 20 to 29% • 3: Growth inhibition rate; 30 to 39% • 4: Growth inhibition rate; 40 to 49% • 5: Growth inhibition rate; 50 to 59% • 6: Growth inhibition rate; 60 to 69% • 7: Growth inhibition rate; 70 to 79% • 8: Growth inhibition rate; 80 to 89% • 9: Growth inhibition rate; 90 to 98% • 10: Growth inhibition rate; 99 to 100%.

barnyardgrass [2] = test: as above; details: after 21 days
Experimental: as §1, §2

black nightshade [3] = test: as above; details: after 21 days
Experimental: as §1, §2

tall morningglory [4] = test: as above; details: after 21 days
Experimental: as §1, §2

velvetleaf [5] = test: as above; details: after 21 days
Experimental: as §1, §2

corn [6] = test: Test Example 5: crop injury against corn (soil treatment); details: after 21 days
Experimental: as §1, §2

Cyperus esculentus L. [7] = test: Test Example 6: herbicidal effects, upland (foliar treatment); details: after 14 days
Excerpt: as §2
(§3) Upland soil was filled in 150 cm^2 pot, and seeds of barnyardgrass, Cyperus esculentus L., velvetleaf, black nightshade, tall morningglory and corn were sowed, and grown in a greenhouse. After the weeds were grown with 10 to 15 cm or so, a predetermined chemical dosage of the wettable powder prepared in accordance with Preparation example 5 was diluted with water containing 0.05% of GRAMIN S and applied as a foliar treatment. After 14 days from the treatment, herbicidal effects and crop injury were judged in accordance with the judgment standard of Test example 5, and the results were shown in Tables 9 and 10. Incidentally, “-” in the table means no effective ingredient was contained.

barnyardgrass [8] = test: as above; details: after 14 days
Excerpt: as §2, §3

black nightshade [9] = test: as above; details: after 14 days
Excerpt: as §2, §3

tall morningglory [10] = test: as above; details: after 14 days
Excerpt: as §2, §3

velvetleaf [11] = test: as above; details: after 14 days
Excerpt: as §2, §3

corn [12] = test: Test Example 6: crop injury against corn (foliar treatment); details: after 14 days
Excerpt: as §2, §3

## CS(=O)(=O)c1ccc(C(=O)C2C(=O)CCCC2=O)c([N+](=O)[O-])c1 [Compound F, 2-(4-mesyl-2-nitrobenzoyl)cyclohexan-1,3-dione]
Cyperus esculentus L. [1]; F alone 25 g/ha
  Herbicidal effects Cyperus esculentus: 8 (Growth inhibition rate; 80 to 89%)
Cyperus esculentus L. [1]; F alone 50 g/ha
  Herbicidal effects Cyperus esculentus: 9 (Growth inhibition rate; 90 to 98%)
Cyperus esculentus L. [1]; F alone 100 g/ha
  Herbicidal effects Cyperus esculentus: 9 (Growth inhibition rate; 90 to 98%)
Barnyardgrass [2]; F alone 25 g/ha
  Herbicidal effects Barnyard grass: 4 (Growth inhibition rate; 40 to 49%)
Barnyardgrass [2]; F alone 50 g/ha
  Herbicidal effects Barnyard grass: 8 (Growth inhibition rate; 80 to 89%)
Barnyardgrass [2]; F alone 100 g/ha
  Herbicidal effects Barnyard grass: 9 (Growth inhibition rate; 90 to 98%)
Black nightshade [3]; F alone 25 g/ha
  Herbicidal effects Black Nightshade: 6 (Growth inhibition rate; 60 to 69%)
Black nightshade [3]; F alone 50 g/ha
  Herbicidal effects Black Nightshade: 3 (Growth inhibition rate; 30 to 39%)
Black nightshade [3]; F alone 100 g/ha
  Herbicidal effects Black Nightshade: 8 (Growth inhibition rate; 80 to 89%)
Tall morningglory [4]; F alone 25 g/ha
  Herbicidal effects Tall Morningglory: 2 (Growth inhibition rate; 20 to 29%)
Tall morningglory [4]; F alone 50 g/ha
  Herbicidal effects Tall Morningglory: 5 (Growth inhibition rate; 50 to 59%)
Tall morningglory [4]; F alone 100 g/ha
  Herbicidal effects Tall Morningglory: 8 (Growth inhibition rate; 80 to 89%)
Velvetleaf [5]; F alone 25 g/ha
  Herbicidal effects Velvetleaf: 9 (Growth inhibition rate; 90 to 98%)
Velvetleaf [5]; F alone 50 g/ha
  Herbicidal effects Velvetleaf: 10 (Growth inhibition rate; 99 to 100%)
Velvetleaf [5]; F alone 100 g/ha
  Herbicidal effects Velvetleaf: 10 (Growth inhibition rate; 99 to 100%)
Corn [6]; F alone 25 g/ha
  Crop ijury against corn: 0 (Growth inhibition rate; 0 to 9%)
Corn [6]; F alone 50 g/ha
  Crop ijury against corn: 0 (Growth inhibition rate; 0 to 9%)
Corn [6]; F alone 100 g/ha
  Crop ijury against corn: 0 (Growth inhibition rate; 0 to 9%)
Cyperus esculentus L. [7]; F alone 25 g/ha
  Herbicidal effects Cyperus esculentus: 4 (Growth inhibition rate; 40 to 49%)
Cyperus esculentus L. [7]; F alone 50 g/ha
  Herbicidal effects Cyperus esculentus: 5 (Growth inhibition rate; 50 to 59%)
Cyperus esculentus L. [7]; F alone 100 g/ha
  Herbicidal effects Cyperus esculentus: 6 (Growth inhibition rate; 60 to 69%)
Barnyardgrass [8]; F alone 25 g/ha
  Herbicidal effects Barnyard grass: 0 (Growth inhibition rate; 0 to 9%)
Barnyardgrass [8]; F alone 50 g/ha
  Herbicidal effects Barnyard grass: 0 (Growth inhibition rate; 0 to 9%)
Barnyardgrass [8]; F alone 100 g/ha
  Herbicidal effects Barnyard grass: 2 (Growth inhibition rate; 20 to 29%)
Black nightshade [9]; F alone 25 g/ha
  Herbicidal effects Black Nightshade: 7 (Growth inhibition rate; 70 to 79%)
Black nightshade [9]; F alone 50 g/ha
  Herbicidal effects Black Nightshade: 10 (Growth inhibition rate; 99 to 100%)
Black nightshade [9]; F alone 100 g/ha
  Herbicidal effects Black Nightshade: 9 (Growth inhibition rate; 90 to 98%)
Tall morningglory [10]; F alone 25 g/ha
  Herbicidal effects Tall Morningglory: 2 (Growth inhibition rate; 20 to 29%)
Tall morningglory [10]; F alone 50 g/ha
  Herbicidal effects Tall Morningglory: 5 (Growth inhibition rate; 50 to 59%)
Tall morningglory [10]; F alone 100 g/ha
  Herbicidal effects Tall Morningglory: 9 (Growth inhibition rate; 90 to 98%)
Velvetleaf [11]; F alone 25 g/ha
  Herbicidal effects Velvetleaf: 9 (Growth inhibition rate; 90 to 98%)
Velvetleaf [11]; F alone 50 g/ha
  Herbicidal effects Velvetleaf: 10 (Growth inhibition rate; 99 to 100%)
Velvetleaf [11]; F alone 100 g/ha
  Herbicidal effects Velvetleaf: 10 (Growth inhibition rate; 99 to 100%)
Corn [12]; F alone 25 g/ha
  Crop injury against corn: 0 (Growth inhibition rate; 0 to 9%)
Corn [12]; F alone 50 g/ha
  Crop injury against corn: 0 (Growth inhibition rate; 0 to 9%)
Corn [12]; F alone 100 g/ha
  Crop injury against corn: 0 (Growth inhibition rate; 0 to 9%)

## CS(=O)(=O)c1ccc(C(=O)C2C(=O)CCCC2=O)c(Cl)c1 [Compound E, 2-(2-chloro-4-mesylbenzoyl)cyclohexan-1,3-dione]
Cyperus esculentus L. [1]; E alone 50 g/ha
  Herbicidal effects Cyperus esculentus: 8 (Growth inhibition rate; 80 to 89%)
Cyperus esculentus L. [1]; E alone 100 g/ha
  Herbicidal effects Cyperus esculentus: 8 (Growth inhibition rate; 80 to 89%)
Cyperus esculentus L. [1]; E alone 200 g/ha
  Herbicidal effects Cyperus esculentus: 8 (Growth inhibition rate; 80 to 89%)
Barnyardgrass [2]; E alone 50 g/ha
  Herbicidal effects Barnyard grass: 7 (Growth inhibition rate; 70 to 79%)
Barnyardgrass [2]; E alone 100 g/ha
  Herbicidal effects Barnyard grass: 9 (Growth inhibition rate; 90 to 98%)
Barnyardgrass [2]; E alone 200 g/ha
  Herbicidal effects Barnyard grass: 10 (Growth inhibition rate; 99 to 100%)
Black nightshade [3]; E alone 50 g/ha
  Herbicidal effects Black Nightshade: 7 (Growth inhibition rate; 70 to 79%)
Black nightshade [3]; E alone 100 g/ha
  Herbicidal effects Black Nightshade: 6 (Growth inhibition rate; 60 to 69%)
Black nightshade [3]; E alone 200 g/ha
  Herbicidal effects Black Nightshade: 9 (Growth inhibition rate; 90 to 98%)
Tall morningglory [4]; E alone 50 g/ha
  Herbicidal effects Tall Morningglory: 6 (Growth inhibition rate; 60 to 69%)
Tall morningglory [4]; E alone 100 g/ha
  Herbicidal effects Tall Morningglory: 7 (Growth inhibition rate; 70 to 79%)
Tall morningglory [4]; E alone 200 g/ha
  Herbicidal effects Tall Morningglory: 10 (Growth inhibition rate; 99 to 100%)
Velvetleaf [5]; E alone 50 g/ha
  Herbicidal effects Velvetleaf: 7 (Growth inhibition rate; 70 to 79%)
Velvetleaf [5]; E alone 100 g/ha
  Herbicidal effects Velvetleaf: 7 (Growth inhibition rate; 70 to 79%)
Velvetleaf [5]; E alone 200 g/ha
  Herbicidal effects Velvetleaf: 10 (Growth inhibition rate; 99 to 100%)
Corn [6]; E alone 50 g/ha
  Crop injury against corn: 0 (Growth inhibition rate; 0 to 9%)
Corn [6]; E alone 100 g/ha
  Crop injury against corn: 0 (Growth inhibition rate; 0 to 9%)
Corn [6]; E alone 200 g/ha
  Crop injury against corn: 0 (Growth inhibition rate; 0 to 9%)
Cyperus esculentus L. [7]; E alone 50 g/ha
  Herbicidal effects Cyperus esculentus: 6 (Growth inhibition rate; 60 to 69%)
Cyperus esculentus L. [7]; E alone 100 g/ha
  Herbicidal effects Cyperus esculentus: 7 (Growth inhibition rate; 70 to 79%)
Cyperus esculentus L. [7]; E alone 200 g/ha
  Herbicidal effects Cyperus esculentus: 8 (Growth inhibition rate; 80 to 89%)
Barnyardgrass [8]; E alone 50 g/ha
  Herbicidal effects Barnyard grass: 1 (Growth inhibition rate; 10 to 19%)
Barnyardgrass [8]; E alone 100 g/ha
  Herbicidal effects Barnyard grass: 2 (Growth inhibition rate; 20 to 29%)
Barnyardgrass [8]; E alone 200 g/ha
  Herbicidal effects Barnyard grass: 7 (Growth inhibition rate; 70 to 79%)
Black nightshade [9]; E alone 50 g/ha
  Herbicidal effects Black Nightshade: 9 (Growth inhibition rate; 90 to 98%)
Black nightshade [9]; E alone 100 g/ha
  Herbicidal effects Black Nightshade: 10 (Growth inhibition rate; 99 to 100%)
Black nightshade [9]; E alone 200 g/ha
  Herbicidal effects Black Nightshade: 10 (Growth inhibition rate; 99 to 100%)
Tall morningglory [10]; E alone 50 g/ha
  Herbicidal effects Tall Morningglory: 6 (Growth inhibition rate; 60 to 69%)
Tall morningglory [10]; E alone 100 g/ha
  Herbicidal effects Tall Morningglory: 7 (Growth inhibition rate; 70 to 79%)
Tall morningglory [10]; E alone 200 g/ha
  Herbicidal effects Tall Morningglory: 9 (Growth inhibition rate; 90 to 98%)
Velvetleaf [11]; E alone 50 g/ha
  Herbicidal effects Velvetleaf: 9 (Growth inhibition rate; 90 to 98%)
Velvetleaf [11]; E alone 100 g/ha
  Herbicidal effects Velvetleaf: 10 (Growth inhibition rate; 99 to 100%)
Velvetleaf [11]; E alone 200 g/ha
  Herbicidal effects Velvetleaf: 10 (Growth inhibition rate; 99 to 100%)
Corn [12]; E alone 50 g/ha
  Crop injury against corn: 0 (Growth inhibition rate; 0 to 9%)
Corn [12]; E alone 100 g/ha
  Crop injury against corn: 0 (Growth inhibition rate; 0 to 9%)
Corn [12]; E alone 200 g/ha
  Crop injury against corn: 0 (Growth inhibition rate; 0 to 9%)
